pIC50: −log10 of the molar value.
molecular target: T1, 3-hydroxy-3-methylglutaryl-coenzyme A reductase (Rattus norvegicus, UniProt P51639); assay: Compound was tested for inhibitory activity against rat hepatic microsomal HMG-CoA reductase; lacked significant inhibitory activity; details: read-out: I50
T1 sequence (P51639 whole entry): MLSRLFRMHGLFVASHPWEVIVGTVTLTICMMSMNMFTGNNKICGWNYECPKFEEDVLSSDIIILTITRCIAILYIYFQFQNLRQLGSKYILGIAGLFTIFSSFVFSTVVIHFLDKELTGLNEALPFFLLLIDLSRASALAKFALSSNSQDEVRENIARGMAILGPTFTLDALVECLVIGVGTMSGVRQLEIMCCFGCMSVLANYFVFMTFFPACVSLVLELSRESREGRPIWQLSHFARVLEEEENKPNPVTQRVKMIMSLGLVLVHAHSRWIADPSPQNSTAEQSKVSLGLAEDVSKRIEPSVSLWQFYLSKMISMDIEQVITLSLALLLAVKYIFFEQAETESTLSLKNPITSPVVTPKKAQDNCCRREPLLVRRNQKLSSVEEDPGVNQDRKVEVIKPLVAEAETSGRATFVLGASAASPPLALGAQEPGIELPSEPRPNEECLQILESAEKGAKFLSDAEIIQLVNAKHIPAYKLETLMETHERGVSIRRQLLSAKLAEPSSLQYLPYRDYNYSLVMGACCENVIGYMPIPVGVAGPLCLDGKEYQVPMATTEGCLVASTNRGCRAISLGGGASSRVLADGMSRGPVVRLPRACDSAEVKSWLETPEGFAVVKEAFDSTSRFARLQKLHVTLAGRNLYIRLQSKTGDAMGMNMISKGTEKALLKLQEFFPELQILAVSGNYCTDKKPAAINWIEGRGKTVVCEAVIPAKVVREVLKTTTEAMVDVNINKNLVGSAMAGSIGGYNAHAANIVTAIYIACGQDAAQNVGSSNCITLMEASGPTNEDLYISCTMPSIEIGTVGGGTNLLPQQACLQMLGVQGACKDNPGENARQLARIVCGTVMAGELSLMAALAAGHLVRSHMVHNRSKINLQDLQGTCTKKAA

pIC50 | Structure (SMILES)
< 3.00 | CC(C)[C@@H](O)C(=O)NCCC(=O)NCCNCC(O)CC(O)CC(=O)O (stereo partly drawn)
< 3.00 | CC(C)[C@@H](O)C(=O)NCCC(=O)NCCNC(=O)C[C@@H](O)CC(=O)O
< 3.00 | CC(C)[C@@H](O)C(=O)NCCC(=O)NCCNC(=O)C[C@@](C)(O)CC(=O)O
